Here are results for one compound from patent publication US20210085699A1, “COMBINATION THERAPIES FOR TREATING CANCERS” (priority 2018, published 2021).

Series [1] relates to TM00921. Briefly: PDX lung carcinoma TM00921 xenografted in NSG mice, 2DG vs glucose. The series is classed as in vivo, human. As to conditions: 200 μL of 600 mM 2DG I.P. three times weekly, 4 weeks, glycolysis-dependent PDX. The text has this:
(§1) The effects of 2DG in human lung carcinoma PDX (patient-derived xenograft) models were eventuated. While it is understood that 2DG primarily affects glycolysis, studies have shown that 2DG can interfere with other systems, such as the cell cycle, independently of its effects on metabolism (8, 32, 33). Changes in the cell cycle would affect the proliferation of cancer cells, and would ultimately influence tumor growth. To test whether 2DG affects glycolysis independently of proliferation, two PDX human lung carcinomas (TM00244 and TM00921) with similar growth kinetics (FIG. 2A) but differing in the use of glycolytic pathways (Table 1) were tested.
(§2) Tumors from these two carcinomas were xenografted into immunodeficient NOD.Scid.IL2R gamma null (NSG™) mice, and, after tumors of a measurable size (>50 mm^3) were observed, mice of each model were treated with 200 μL of either 600 mM 2DG or glucose three times weekly via I.P. injection.
(§3) Patient-derived xenograft (PDX) tumors were obtained from the JAX PDX Resource. Tumor fragments were minced separately and xenografted subcutaneously in an NSG mouse to establish P1. Upon growth of the tumor fragment, the tumor was harvested, minced, and xenografted in multiple mice to establish P2 mice. All experiments were conducted on P2 or higher mice that arose from engraftment from one of multiple tumor fragments.

For series [2], the system named is TM00244. Briefly: PDX lung carcinoma TM00244 xenografted in NSG mice, 2DG vs glucose. Conditions: 200 μL of 600 mM 2DG I.P. three times weekly, 4 weeks, glycolysis-independent PDX. The series is classed as in vivo, human.
Description: as §1, §2, §3

Series [3] relates to spontaneously arising lymphomas. Kind of series: 2DG in drinking water, spontaneous lymphomas of SJL.CD8a−/− mice. It counts as in vivo, mouse. The text has this:
To test the extent to which inhibition of glycolysis by 2DG alleviated these spontaneously arising lymphomas, a cohort of SJL.CD8a−/− female mice were aged to […] of age and were monitored for signs of lymphoma development. Visible growth was most evident in cervical lymph nodes and in some cases in spleens (indicated by arrows, FIG. 1A). Once tumors were sufficiently large to palpate, mice were placed on water with 6 g/L of dissolved 2DG provided ad libitum and monitored weekly for tumor reduction. […] Photographs of the tumors were taken weekly to document disease regression, and the time points, in weeks, at which the tumors visibly shrank or, later, reemerged, were recorded.
Female SJL.CD8a−/− mice were obtained from the Jackson Laboratory. Mice were aged and checked weekly for splenic or lymphatic tumors. […] Tumors were monitored and photographed weekly for signs of disease regression or progression.
SJL.CD8a−/− female mice were aged and monitored for signs of tumor development weekly after reaching 6 months of age. Tumors were found on mice in between 7 to 12 months of age. Once tumors had reached a clearly visible size, the mice were given water with 6 g/L of dissolved 2DG provided ad libitum. This concentration of 2DG in the water supplied the mice with a daily dose of approximately 960 mg/kg of 2DG. Mice were monitored weekly to determine changes in tumor mass. Photographs of the tumors were taken weekly to gauge whether the tumor was shrinking, expanding, or maintaining their size and to provide an estimate of the overall health of the mice. Treatments lasted for 11 weeks or until the tumors returned and mice became too sick to continue in the study. The treatment of one mouse was carried out to week 16 to determine what, if any, side effects would occur with prolonged 2DG exposure. […] Dates on which tumor shrinkage was observed, as well as dates on which tumor reemergence was observed, were recorded.

Series [4] concerns CCRF-SB cells. Briefly: CCRF-SB xenograft in NRG mice, tumor burden by human CD19+ cells. It counts as in vivo. Conditions: 200 μL of 600 mM 2DG I.P. three times per week for two weeks, vs glucose. Here is the method: (§4) To test that hypothesis, the two cell lines were tested for 2DG sensitivity in vivo: immunodeficient NOD.Cg-Rag1^tm1MomIl2rg^tm1Wjl/SzJ (NRG™) mice were xenografted with either MEC1 or CCRF-SB cells, and the mice were then treated with 200 μL of 600 mM 2DG or glucose I.P. three times per week for two weeks. Both MEC1 and CCRF-SB cells migrate to the spleen and bone marrow, and since these mice […] CD19+ B-cells, the tumor burden can be measured terminally in these organs by anti-human CD19 staining via flow cytometry after euthanasia at the end of the treatment period.
Human cancer cell lines were xenografted into NRG mice in the following way: Cells grown in flasks were given fresh media the night before xenograftment and seeded at 10^6 cells per mL. The next day, the cells were washed twice with DPBS without calcium or magnesium and resuspended to 1-2×10^8 cells per mL of DPBS at room temperature and immediately injected via tail vein at 100 μL per mouse. The cells were given 7-10 days to fully xenograft, after which tumor load in the blood was assessed via flow cytometry (FACSCaliber II) for human CD19+ cells (Antibody cat no. 555413, BD Parmingen). […] Upon euthanasia, the spleen and the bone marrow were harvested and stained for human CD19, and the cells were measured by flow cytometry on the FACSCaliber II. […]
In general terms: A xenograft is tissue or cells of one species grown in another, often human tumour cells in immunodeficient mice.

For series [5], the system named is thymic lymphomas. Kind of series: 2DG I.P. in Trp53−/− mouse model of thymic lymphoma. The series is classed as in vivo. Here is the method:
Next, a more homogeneous and acute spontaneously arising lymphoma was tested. In addition, the extent to which 2DG could affect a purely T-cell lymphoma was tested. To meet all of these criteria, a classic mouse model of T-cell cancer, the p53-deficient mouse (31) was used. […] To test the effect of 2DG on these thymic lymphomas, […].

Series [6] has as its system MEC1 cells. Briefly: MEC1 xenograft in NRG mice, tumor burden by human CD19+ cells (flow cytometry). It counts as in vivo. On the procedure:
as §4
Because DIDS was effective in reducing numbers of MEC1 B-cells ex vivo, its effectiveness was tested in vivo. […] MEC1 cells were xenografted into immunodeficient NRG™ mice for two weeks, and mice were then treated either with DIDS at 50 mg/kg or with a 0.1 M potassium bicarbonate/PBS vehicle, once per week for an additional two weeks. NRG™ mice were used because they were deficient in CD19 cells, allowing quantification of MEC1 B-cells by staining spleen cells for human CD19, as the spleen is a homing organ for MEC1 B-cells, all of which are positive for CD19.
Mice were treated I.P. three times weekly for two weeks. 1) mice were dosed I.P. with 10 mg/kg DIDS, a fifth of the dose required to elicit an effect in vivo (FIG. 4D); 2) mice were treated I.P. with 220 mg/kg of 2DG or glucose; a third of the dose of 2DG required for an effect (FIG. 3C); 3) mice were treated with both DIDS and 2DG, at the same doses used in the first two groups; 4) as a positive control, mice were treated with fludarabine, a compound frequently used to treat CLL, at 35 mg/kg, a dose commonly used to elicit an effect; and 5) as a negative control, mice were treated with vehicle consisting of glucose in PBS (41). Following the 2-week treatment period, bone marrow and spleens were assessed for tumor burden, by determining the percentages of human CD19-positive cells via flow cytometry (FIG. 5C).
Human cancer cell lines were xenografted into NRG mice in the following way: Cells grown in flasks were given fresh media the night before xenograftment and seeded at 10^6 cells per mL. The next day, the cells were washed twice with DPBS without calcium or magnesium and resuspended to 1-2×10^8 cells per mL of DPBS at room temperature and immediately injected via tail vein at 100 μL per mouse. The cells were given 7-10 days to fully xenograft, after which tumor load in the blood was assessed via flow cytometry (FACSCaliber II) for human CD19+ cells (Antibody cat no. 555413, BD Parmingen). Mice with similar tumor loads were assigned to different treatment groups to decrease bias and ensure more even tumor load across treatments. Mice were treated as described in the Results section for two weeks unless otherwise indicated. Upon euthanasia, the spleen and the bone marrow were harvested and stained for human CD19, and the cells were measured by flow cytometry on the FACSCaliber II. Analysis of the flow data was done by Flowjo version 8.8.7 (BD Pharmingen).
Xenografts were done as follows: NOD. Rag1−/− IL-2rg−/− (NRG) mice obtained from the Jackson Laboratory were xenografted for one to two weeks with Non Hogdkin's Leukemia CCRFSB, Chronic lymphocytic leukemia MEC1 cells or MEC1 cells carrying the luciferase gene (MEC1_LUC). Mice were then randomly assigned to treatment or vehicle cohort, and treated for two weeks.

Series [7] concerns MEC1 cells. Kind of series: Ex vivo growth/survival of MEC1 cells. Conditions: 2DG 0.2 mM alone, 48 hours. It counts as cell-based, human.
Where [8] appears, read: one mouse, 2DG 6 g/L in water carried out to week 16.
The mark [9] stands for this setting: 200 μL of 600 mM 2DG I.P. three times per week for two weeks, vs glucose.

On to `OCC1O[C@H](O)C[C@@H](O)[C@@H]1O` (mixture of isomers) [2DG, 2-deoxy-D-glucose], for which the tumor volume result in series [1] is reported as “significantly smaller tumor volume”. Further, the tumor size result in series [2] is given as “no difference in tumor size”. Further, the “adverse side effects by gross observation (weight loss, lethargy, lack of grooming)” value in series [3] (2DG 6 g/L in drinking water, at any time during treatment) is recorded as “no adverse side effects of this treatment were observed”. The “time within which tumors returned” value in series [3] (2DG 6 g/L in drinking water, despite continuation of treatment) is given as 5-11 weeks. For the same compound, the “mice of the six responders in which tumors returned” value in series [3] (2DG 6 g/L in drinking water, treatment continued) is “four”. Also, in series [3] (2DG 6 g/L in drinking water, N=7), the “treatment time at which tumor regression was evident” value was “two to three”. In addition, the “appearance of greatly enlarged spleen (representative mouse)” value in series [3] (FIG. 1A legend, 2DG 6 g/L in drinking water) is “returned to normal appearance after two weeks of treatment”. In addition, the “fraction of mice with tumor resurgence” value in series [3] (FIG. 1B legend, after 5-11 weeks of 2DG treatment, N=7) is “approximately ¾”. In series [3] (setting [8]), the “adverse effects with prolonged 2DG exposure” value is “no adverse effects were noted” and the “tumor return under prolonged treatment” value is recorded as “This tumor never returned”. In addition, the “tumor burden (human CD19+ cells) in spleens or bone marrow” value in series [4] is listed as “no significant response to 2DG”. Further, in series [5] (2DG 670 mg/kg I.P.), the “duration of inactivity upon injection” value fell in the range of 10 to 60 min. Moreover, the “protection from developing neoplasms (survival curve)” value in series [5] (2DG 670 mg/kg I.P. three times weekly from 14 weeks of age for 10 weeks, vs glucose) is on record as “significantly protected from developing neoplasms”. Moreover, the weight gain entry in series [5] (2DG 670 mg/kg I.P. three times weekly, vs glucose-treated mice) was “lower weight gain compared to glucose-treated mice, although the difference did not achieve significance”. The “tumor burden (% hCD19+) in bone marrow” value in series [6] (2DG alone 220 mg/kg I.P. three times weekly for two weeks) was “elicited as much effect as the combination treatment”. For the same compound, in series [6] (setting [9]), the “tumor burden (human CD19+ cells) in bone marrow” value is on record as “significant reductions in numbers” and the “tumor burden (human CD19+ cells) in spleen, sensitivity to 2DG” value is “those in the spleen did not”. The “effect on MEC1 cell numbers” value in series [7] is “does not have an effect on its own”.
